From patent US9957251B2 (Takeda Pharmaceutical Company Limited, priority 2014, dated 2018)

Tests used:
CDK8/CycC = target: T1, CDK8/CycC (Homo sapiens, UniProt P49336); assay: CDK8 inhibitory activity (TR-FRET, Kinase Tracer-236 displacement); assay type: binding; details: 1 μM of the test compound; read-out: Percent inhibition of CDK8 activity (%)
T1 construct: purchased Carna Biosciences
In short: (§1)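 Binding assay measuring displacement of Kinase Tracer-236 (60 nM in the added mix) by compound, using Eu-cryptate anti-GST antibody with CDK8/CycC (84 ng/mL) or CDC2L6/CycC (87 ng/mL) solutions. After 1 h at room temperature, TR-FRET read at 615 and 665 nm (excitation 320 nm).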

CDK19 (CDC2L6/CycC) = target: T2, CDK19 (CDC2L6/CycC) (Homo sapiens, UniProt Q9BWU1); assay: CDK19 inhibitory activity (TR-FRET, Kinase Tracer-236 displacement); assay type: binding; details: 1 μM of the test compound; read-out: Percent inhibition of CDK19 activity (%)
T2 construct: purchased Carna Biosciences
T2 sequence (Q9BWU1 whole entry): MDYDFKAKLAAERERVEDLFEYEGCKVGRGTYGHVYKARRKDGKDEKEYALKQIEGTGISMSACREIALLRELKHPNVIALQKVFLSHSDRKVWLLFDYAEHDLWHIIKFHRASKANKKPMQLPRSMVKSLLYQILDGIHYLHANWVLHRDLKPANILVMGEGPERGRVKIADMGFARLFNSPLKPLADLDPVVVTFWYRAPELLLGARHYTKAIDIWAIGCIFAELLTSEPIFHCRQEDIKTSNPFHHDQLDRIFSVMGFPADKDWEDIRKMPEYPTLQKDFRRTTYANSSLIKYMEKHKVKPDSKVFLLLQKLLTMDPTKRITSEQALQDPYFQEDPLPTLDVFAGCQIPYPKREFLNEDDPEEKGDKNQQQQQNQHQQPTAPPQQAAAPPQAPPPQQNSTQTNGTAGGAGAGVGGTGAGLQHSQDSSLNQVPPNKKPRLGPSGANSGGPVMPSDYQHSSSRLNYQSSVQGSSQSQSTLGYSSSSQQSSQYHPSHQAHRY
T2 sequence (P24863 whole entry partner): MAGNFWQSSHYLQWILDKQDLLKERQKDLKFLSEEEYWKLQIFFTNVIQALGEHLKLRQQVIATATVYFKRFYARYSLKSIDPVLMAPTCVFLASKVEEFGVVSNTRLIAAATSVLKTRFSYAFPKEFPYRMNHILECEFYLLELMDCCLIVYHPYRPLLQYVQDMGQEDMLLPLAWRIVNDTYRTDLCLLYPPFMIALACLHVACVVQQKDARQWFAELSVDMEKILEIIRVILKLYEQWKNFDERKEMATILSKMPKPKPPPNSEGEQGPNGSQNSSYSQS
In short: as §1

[1] = system: human multiple myeloma RPMI8226 cells; assay: Inhibitory activity against human multiple myeloma RPMI8226 cell growth (CellTiter-Glo); assay type: cell-based; details: Homo sapiens, RPMI-8226, 192 h, 1 μM of the test compound, cultured for 8 days; read-out: Percent inhibition of RPMI8226 cell growth (%)
In short: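 RPMI8226 cells (300/well) cultured 1 day at 37 °C, 5% CO2, then given compound at 1 μM for 8 days. ATP luminescence (CellTiter-Glo) read; percent inhibition relative to 0.1% DMSO wells.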

T1 sequence (P49336 whole entry): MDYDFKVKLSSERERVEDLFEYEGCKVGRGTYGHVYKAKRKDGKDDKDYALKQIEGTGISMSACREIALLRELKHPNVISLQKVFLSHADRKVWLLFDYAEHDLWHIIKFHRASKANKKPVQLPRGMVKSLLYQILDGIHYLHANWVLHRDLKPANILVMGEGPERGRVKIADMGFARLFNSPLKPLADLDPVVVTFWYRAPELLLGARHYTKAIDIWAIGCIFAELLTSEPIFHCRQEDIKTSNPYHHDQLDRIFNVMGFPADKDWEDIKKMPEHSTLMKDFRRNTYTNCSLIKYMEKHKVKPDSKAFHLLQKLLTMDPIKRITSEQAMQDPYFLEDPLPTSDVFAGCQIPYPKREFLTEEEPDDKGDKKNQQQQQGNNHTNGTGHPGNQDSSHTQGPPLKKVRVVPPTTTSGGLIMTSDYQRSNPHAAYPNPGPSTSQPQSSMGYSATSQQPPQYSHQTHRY
T1 sequence (P24863 whole entry partner): as the sequence (P24863 whole entry partner) above

Structure (SMILES) | inhibition at 1 µM (CDK8/CycC) | inhibition at 1 µM (CDK19 (CDC2L6/CycC)) | inhibition at 1 µM [1]
O=C(/C=C/c1cnccc1-c1ccc2nccn2c1)Nc1ccc(CN2CCOCC2)cc1 [Example 222, (2E)-3-(4-(imidazo[1,2-a]pyridin-6-yl)pyridin-3-yl)-N-(4-(morpholin-4-ylmethyl)phenyl)acrylamide] | 101% | 100% | 52%
CN(C)CCc1ccc(NC(=O)/C=C/c2cnccc2-c2cnn(C)c2)cc1 [Example 226, (2E)-N-(4-(2-(dimethylamino)ethyl)phenyl)-3-(4-(1-methyl-1H-pyrazol-4-yl)pyridin-3-yl)acrylamide] | 98% | 98% | 66%
Cn1cnc2ccc(-c3ccncc3/C=C/C(=O)Nc3ccc(CN4CCOCC4)cc3)cc21 [Example 234, (2E)-3-(4-(1-methyl-1H-benzimidazol-6-yl)pyridin-3-yl)-N-(4-(morpholin-4-ylmethyl)phenyl)acrylamide] | 102% | 102% | 65%
Cn1cc(-c2ccncc2/C=C/C(=O)Nc2cc(F)c(CN3CCOCC3)cc2F)cn1 [Example 237, (2E)-N-(2,5-difluoro-4-(morpholin-4-ylmethyl)phenyl)-3-(4-(1-methyl-1H-pyrazol-4-yl)pyridin-3-yl)acrylamide] | 94% | 91% | 66%
Cn1cc(-c2c(F)cncc2/C=C/C(=O)Nc2ccc(CN3CCOCC3)cc2)cn1 [Example 238, (2E)-3-(5-fluoro-4-(1-methyl-1H-pyrazol-4-yl)pyridin-3-yl)-N-(4-(morpholin-4-ylmethyl)phenyl)acrylamide] | 100% | 100% | 67%
COCc1ccc(NC(=O)/C=C/c2cnccc2-c2cnn(C)c2)cc1 [Example 239, (2E)-N-(4-(methoxymethyl)phenyl)-3-(4-(1-methyl-1H-pyrazol-4-yl)pyridin-3-yl)acrylamide] | 100% | 100% | 65%
O=C(/C=C/c1cnccc1-c1ccc2[nH]cnc2c1)Nc1ccc(CN2CCOCC2)cc1 [Example 241, (2E)-3-(4-(1H-benzimidazol-5-yl)pyridin-3-yl)-N-(4-(morpholin-4-ylmethyl)phenyl)acrylamide] | 99% | 101% | 66%
O=C(/C=C/c1cnccc1-c1ccc2[nH]ncc2c1)Nc1ccc(CN2CCOCC2)cc1 [Example 242, (2E)-3-(4-(1H-indazol-5-yl)pyridin-3-yl)-N-(4-(morpholin-4-ylmethyl)phenyl)acrylamide] | 96% | 97% | 55%
CC(=O)N(C)Cc1cc(NC(=O)/C=C/c2cnccc2-c2cnn(C)c2)ccc1C [Example 246, (2E)-N-(3-((acetyl(methyl)amino)methyl)-4-methylphenyl)-3-(4-(1-methyl-1H-pyrazol-4-yl)pyridin-3-yl)acrylamide] | 95% | 93% | 49%
O=C(/C=C/c1cnccc1-c1cnn(C2CC2)c1)Nc1ccc2c(c1)CN(CC(F)(F)F)CC2 [Example 247, (2E)-3-(4-(1-Cyclopropyl-1H-pyrazol-4-yl)pyridin-3-yl)-N-(2-(2,2,2-trifluoroethyl)-1,2,3,4-tetrahydroisoquinolin-7-yl)acrylamide] | 98% | 102% | 63%
O=C(/C=C/c1cnccc1-c1cnn(C2CC2)c1)Nc1ccc2c(c1)CN(C(=O)C(F)(F)F)CC2 [Example 248, (2E)-3-(4-(1-Cyclopropyl-1H-pyrazol-4-yl)pyridin-3-yl)-N-(2-(trifluoroacetyl)-1,2,3,4-tetrahydroisoquinolin-7-yl)acrylamide] | 98% | 98% | 57%
Cn1cc(-c2ccncc2/C=C/C(=O)Nc2ccc(CN3CCOCC3)c(F)c2)cn1 [Example 249, (2E)-N-(3-fluoro-4-(morpholin-4-ylmethyl)phenyl)-3-(4-(1-methyl-1H-pyrazol-4-yl)pyridin-3-yl)acrylamide] | 99% | 97% | 62%
COc1ncc(-c2ccncc2/C=C/C(=O)Nc2ccc(CN3CCOCC3)cc2F)s1 [Example 250, (2E)-N-(2-Fluoro-4-(morpholin-4-ylmethyl)phenyl)-3-(4-(2-methoxy-1,3-thiazol-5-yl)pyridin-3-yl)acrylamide] | 99% | 96% | 63%
Cn1ccc2cc(NC(=O)/C=C/c3cnccc3-c3cnn(C4CC4)c3)ccc21 [Example 251, (2E)-3-(4-(1-Cyclopropyl-1H-pyrazol-4-yl)pyridin-3-yl)-N-(1-methyl-1H-indol-5-yl)acrylamide] | 100% | 97% | 61%
CN(C)CCOc1ccc(NC(=O)/C=C/c2cnccc2-c2cnn(C)c2)cc1 [Example 252, (2E)-N-(4-(2-(dimethylamino)ethoxy)phenyl)-3-(4-(1-methyl-1H-pyrazol-4-yl)pyridin-3-yl)acrylamide] | 99% | 93% | 60%
COCCOc1ccc(NC(=O)/C=C/c2cnccc2-c2cnn(C)c2)cc1 [Example 253, (2E)-N-(4-(2-methoxyethoxy)phenyl)-3-(4-(1-methyl-1H-pyrazol-4-yl)pyridin-3-yl)acrylamide] | 98% | 97% | 62%
CCN1CCc2cc(NC(=O)/C=C/c3cnccc3-c3cnn(C)c3)ccc2C1 [Example 256, (2E)-N-(2-ethyl-1,2,3,4-tetrahydroisoquinolin-6-yl)-3-(4-(1-methyl-1H-pyrazol-4-yl)pyridin-3-yl)acrylamide] | 96% | 95% | 58%
CCN1CCc2ccc(NC(=O)/C=C/c3cnccc3-c3cnn(C)c3)cc2C1 [Example 257, (2E)-N-(2-ethyl-1,2,3,4-tetrahydroisoquinolin-7-yl)-3-(4-(1-methyl-1H-pyrazol-4-yl)pyridin-3-yl)acrylamide] | 99% | 95% | 56%
O=C(/C=C/c1cnccc1-c1cnn(C2CCC2)c1)Nc1ccc(CN2CCOCC2)cc1 [Example 258, (2E)-3-(4-(1-cyclobutyl-1H-pyrazol-4-yl)pyridin-3-yl)-N-(4-(morpholin-4-ylmethyl)phenyl)acrylamide] | 96% | 96% | 54%
Cn1cc(-c2c(F)cncc2/C=C/C(=O)Nc2ccc(CN3CCOCC3)cc2F)cn1 [Example 260, (2E)-3-(5-Fluoro-4-(1-methyl-1H-pyrazol-4-yl)pyridin-3-yl)-N-(2-fluoro-4-(morpholin-4-ylmethyl)phenyl)acrylamide] | 98% | 99% | 53%
Cn1cc2cc(-c3ccncc3/C=C/C(=O)Nc3ccc(CN4CCOCC4)cc3)ccc2n1 [Example 261, (2E)-3-(4-(2-methyl-2H-indazol-5-yl)pyridin-3-yl)-N-(4-(morpholin-4-ylmethyl)phenyl)acrylamide] | 97% | 93% | 52%
O=C(/C=C/c1cnccc1-c1cnn(C2CC2)c1)Nc1ccc2c(ccn2CC(F)(F)F)c1 [Example 266, (2E)-3-(4-(1-Cyclopropyl-1H-pyrazol-4-yl)pyridin-3-yl)-N-(1-(2,2,2-trifluoroethyl)-1H-indol-5-yl)acrylamide] | 99% | 98% | 57%
COC(C)c1ccc(NC(=O)/C=C/c2cnccc2-c2cnn(C3CC3)c2)cc1 (stereo not drawn) [Example 271, (2E)-3-(4-(1-cyclopropyl-1H-pyrazol-4-yl)pyridin-3-yl)-N-(4-(1-methoxyethyl)phenyl) acrylamide] | 102% | 93% | 62%
COC(C)(C)Cc1ccc(NC(=O)/C=C/c2cnccc2-c2cnn(C3CC3)c2)cc1 [Example 272, (2E)-3-(4-(1-cyclopropyl-1H-pyrazol-4-yl)pyridin-3-yl)-N-(4-(2-methoxy-2-methylpropyl)phenyl)acrylamide] | 101% | 94% | 67%
Cn1cc(-c2ccncc2/C=C/C(=O)Nc2ccc(Cn3cccn3)cc2)cn1 [Example 274, (2E)-3-(4-(1-methyl-1H-pyrazol-4-yl)pyridin-3-yl)-N-(4-(1H-pyrazol-1-ylmethyl)phenyl)acrylamide] | 102% | 97% | 53%
Cn1cc(-c2ccncc2/C=C/C(=O)Nc2ccc(Cn3ccnc3)cc2)cn1 [Example 275, (2E)-N-(4-(1H-Imidazol-1-ylmethyl)phenyl)-3-(4-(1-methyl-1H-pyrazol-4-yl)pyridin-3-yl)acrylamide] | 102% | 98% | 64%
Cn1cc(-c2ccncc2/C=C/C(=O)Nc2ccc(CC(F)(F)F)cc2)cn1 [Example 276, (2E)-3-(4-(1-methyl-1H-pyrazol-4-yl)pyridin-3-yl)-N-(4-(2,2,2-trifluoroethyl)phenyl)acrylamide] | 99% | 92% | 60%
